# Measured values taken from US10450297B2, “Sulfonyl amide derivatives for the treatment of abnormal cell growth” (Pfizer, Inc., priority 2007, dated 2019).
# Target: FAK kinase (catalytic construct FAK(410-689)) (Homo sapiens (Human), UniProt Q05397)
# Test: FAKcd kinase ELISA (inhibition of poly-glu-tyr phosphorylation by FAK(410-689))
# Assay type: biochemical
# Settings: 50 μM final ATP
# FAK kinase (catalytic construct FAK(410-689)), sequence (Q05397 410-689): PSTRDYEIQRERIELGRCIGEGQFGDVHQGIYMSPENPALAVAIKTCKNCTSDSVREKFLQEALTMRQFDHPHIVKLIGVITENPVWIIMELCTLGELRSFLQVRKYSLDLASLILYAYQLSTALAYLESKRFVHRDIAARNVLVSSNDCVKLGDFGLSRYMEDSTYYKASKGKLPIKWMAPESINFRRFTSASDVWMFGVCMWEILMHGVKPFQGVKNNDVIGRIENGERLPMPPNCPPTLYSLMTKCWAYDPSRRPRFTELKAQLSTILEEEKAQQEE
row,Compound,IC50
1,"CC(C)OCc1ccc(Nc2ncc(C(F)(F)F)c(NCc3cccnc3N(C)S(C)(=O)=O)n2)cc1 [Compound 347, N-[3-({{2-{[4-(isopropoxymethyl)phenyl]amino}-5-(trifluoromethyl)pyrimidin-4-yl]amino}methyl)pyridin-2-yl]-N-methylmethane-sulfonamide]",2.15 nM
2,"CN(c1ncccc1CNc1nc(Nc2ccc(CN3CCOCC3)cc2)ncc1C(F)(F)F)S(C)(=O)=O [Compound 349, N-methyl-N-[3-({[2-{[4-(morpholin-4-ylmethyl)phenyl]amino}-5-(trifluoromethyl)pyrimidin-4-yl]amino}methyl)pyridin-2-yl]methanesuifonamide]",< 0.595 nM
3,"CN(c1ncccc1CNc1nc(Oc2ccc(C(N)=O)cc2)ncc1C(F)(F)F)S(C)(=O)=O [Compound 350, 4-({4-[({2-[methyl(methylsulfonyl)amino]pyridin-3-yl}methyl)amino]-5-(trifluoromethyl)pyrimidin-2-yl}oxy)benzamide]",63.7 nM
4,"C[C@@H](N)c1ccc(Nc2ncc(C(F)(F)F)c(NCc3ncccc3N(C)S(C)(=O)=O)n2)cc1 [Compound 352, N-[2-({[2-({4-[(1R)-1-aminoethyl]phenyl}amino)-5-(trifluoromethyl)pyrimidin-4-yl]amino}methyl)pyridin-3-yl]-N-methylmethane-sulfonamide]",< 0.595 nM
5,"C[C@@H](N)c1ccc(Nc2ncc(C(F)(F)F)c(NCc3cccc(N(C)S(C)(=O)=O)c3)n2)cc1 [Compound 353, N-[3-({[2-({4-[(1R)-1-aminoethyl]phenyl}amino)-5-(trifluoromethyl)pyrimidin-4-yl]amino}methyl)phenyl]-N-methylmethanesulfonamide]",< 0.595 nM
6,"C[C@H](N)c1ccc(Nc2ncc(C(F)(F)F)c(NCc3nccnc3N(C)S(C)(=O)=O)n2)cc1 [Compound 355, N-[3-({[2-({4-((1S)-1-aminoethyl]phenyl}amino)-5-(trifluoromethyl)pyrimidin-4-yl]amino}methyl)pyrazin-2-yl]-N-methylmethane-sulfonamide]",< 0.595 nM
7,"C[C@H](N)c1ccc(Nc2ncc(C(F)(F)F)c(NCc3ncccc3N(C)S(C)(=O)=O)n2)cc1 [Compound 356, N-[2-({[2-({4-[(1S)-1-aminoethyl]phenyl}amino)-5-(trifluoromethyl)pyrimidin-4-yl]amino}methyl)pyridin-3-yl]-N-methylmethane-sulfonamide]",0.593 nM
8,"CN(c1cccc(CNc2nc(Nc3ccc(C(N)=O)c(Cl)c3)ncc2C(F)(F)F)c1)S(C)(=O)=O [Compound 357, 2-chloro-4-{[4-({3-[methyl(methylsulfonyl)amino]benzyl}amino)-5-(trifluoromethyl)pyrimidin-2-yl]amino}benzamide]",1.47 nM
9,"CN(c1ncccc1CNc1nc(Nc2ccc(C(N)=O)c(Cl)c2)ncc1C(F)(F)F)S(C)(=O)=O [Compound 358, 2-chloro-4-({4-[({2-[methyl(methylsulfonyl)amino]pyridin-3-yl}methyl)amino]-5-(trifluoromethyl)pyrimidin-2-yl}amino)benzamide]",< 0.595 nM
10,"CN(c1cccnc1CNc1nc(Nc2ccc(C(N)=O)c(Cl)c2)ncc1C(F)(F)F)S(C)(=O)=O [Compound 359, 2-chloro-4-({4-[({3-[methyl(methylsulfonyl)amino]pyridin-2-yl}methyl)amino]-5-(trifluoromethyl)pyrimidin-2-yl}amino)benzamide]",< 0.595 nM
11,"CN(c1nccnc1CNc1nc(Nc2ccc(C(N)=O)c(Cl)c2)ncc1C(F)(F)F)S(C)(=O)=O [Compound 360, 2-chloro-4-({4-[({3-[methyl(methylsulfonyl)amino]pyrazin-2-yl}methyl)amino]-5-(trifluoromethyl)pyrimidin-2-yl}amino)benzamide]",< 0.595 nM
12,"CN(c1ncccc1CNc1nc(Nc2cccc(C(=O)NC3CCNCC3)c2)ncc1C(F)(F)F)S(C)(=O)=O [Compound 361, 3-({4-[({2-[methyl(methylsulfonyl)amino]pyridin-3-yl}methyl)amino]-5-(trifluoromethyl)pyrimidin-2-yl}amino)-N-piperidin-4-ylbenzamide]",8.7 nM
13,"C[C@H](N)c1ccc(Nc2ncc(C(F)(F)F)c(NCc3cccc(N(C)S(C)(=O)=O)c3)n2)cc1 [Compound 365, N-[3-({[2-({4-[(1S)-1-aminoethyl]phenyl}amino)-5-(trifluoromethyl)pyrimidin-4-yl]amino}methyl)phenyl]-N-methylmethanesulfonamide]",0.976 nM
14,"CC(=O)Nc1cccc(Nc2ncc(C(F)(F)F)c(NCc3cccnc3N(C)S(C)(=O)=O)n2)c1 [Compound 366, N-[3-({4-[({2-[methyl(methylsulfonyl)amino]pyridin-3-yl}methyl)amino]-5-(trifluoromethyl)pyrimidin-2-yl}amino)phenyl]acetamide]",< 0.595 nM
15,"CN1CCN(c2cccc(Nc3ncc(C(F)(F)F)c(NCc4cccnc4N(C)S(C)(=O)=O)n3)c2)C1=O [Compound 367, N-methyl-N-[3-({[2-{[3-(3-methyl-2-oxoimidazolidin-1-yl)phenyl]amino}-5-(trifluoromethyl)pyrimidin-4-yl]amino}methyl)pyridin-2-yl]methanesulfonamide]",1.64 nM
16,"CNC(=O)c1ccc(Nc2ncc(C(F)(F)F)c(NCc3nccnc3N(C)S(C)(=O)=O)n2)c(F)c1 [Compound 368, 3-fluoro-N-methyl-4-({4-[({3-[methyl(methylsulfonyl)amino]pyrazin-2-yl}methyl)amino]-5-(trifluoromethyl)pyrimidin-2-yl}amino)benzamide]",< 0.595 nM
17,"CNC(=O)c1ccc(Nc2ncc(C(F)(F)F)c(NCc3nccnc3N(C)S(C)(=O)=O)n2)c(F)c1 [Compound 369, 3-fluoro-N-methyl-4-({4-[({3-[methyl(methylsulfonyl)amino]pyrazin-2-yl}methyl)amino]-5-(trifluoromethyl)pyrimidin-2-yl}amino)benzamide]",1.49 nM
18,"CNC(=O)c1ccc(Nc2ncc(C(F)(F)F)c(NCc3nccnc3N(C)S(C)(=O)=O)n2)cc1F [Compound 370, 2-fluoro-N-methyl-4-({4-(({3-[methyl(methylsulfonyl)amino]pyrazin-2-yl}methyl)amino]-5-(trifluoromethyl)pyrimidin-2-yl}amino)benzamide]",0.6 nM
19,"CCC(=O)Nc1cccc(Nc2ncc(C(F)(F)F)c(NCc3cccnc3N(C)S(C)(=O)=O)n2)c1 [Compound 371, N-(3-({4-[({2-[methyl(methylsulfonyl)amino]pyridin-3-yl}methyl)amino]-5-(trifluoromethyl)pyrimidin-2-yl}amino)phenyl]propanamide]",1.94 nM
20,"CN(c1ncccc1CNc1nc(Nc2ccc(C(N)=O)nc2)ncc1C(F)(F)F)S(C)(=O)=O [Compound 372, 5-({4-[({2-[methyl(methylsulfonyl)amino]pyridin-3-yl}methyl)amino]-5-(trifluoromethyl)pyrimidin-2-yl}amino)pyridine-2-carboxamide]",4 nM
21,"CN(c1nccnc1CNc1nc(Nc2cc(C(N)=O)ccc2F)ncc1C(F)(F)F)S(C)(=O)=O [Compound 373, 4-fluoro-3-({4-[({3-[methyl(methylsulfonyl)amino]pyrazin-2-yl}methyl)amino]-5-(trifluoromethyl)pyrimidin-2-yl}amino)benzamide]",7.49 nM
